From patent publication US8414989B2, “Cyclodextrin compositions, articles, and methods” (Cellresin Technologies, LLC, priority 2011, dated 2013)

Columns and labels:
Type in all cases: physicochemical
[1] = Control Example A: dissociation of 1-MCP from supplied 1-MCP/c/α-CD powder as a function of added water; settings: for Headspace concentration of 1-MCP: 0.1 g 1-MCP/c/α-CD powder, 250 mL bottle, shaken 1 hour, about 20 C
Method: A sample of 1-MCP/c/α-CD powder was obtained (AgroFresh of Spring House, Pa.). According to the supplier's specification sheet, 1-MCP was 4.7 wt % of α-CD or 88.7 wt % 1-MCP complex based on a theoretical 1:1 molar ratio of 1-MCP to α-CD; this corresponds to a resulting headspace concentration of 8,600 ppm. A series of tests were conducted to measure the dissociation of 1-MCP from the supplied 1-MCP/c/α-CD as a function of added water. First, 0.1 g aliquots of the supplied 1-MCP/c/α-CD powder were added to each of 5, 250 mL bottles, which were then capped with TEFLON® faced septa. Varying amounts of water were added to the bottles by syringe, and then the bottles were mechanically shaken for one hour, followed by headspace measurement for 1-MCP according to the procedure of Example 3. The amounts of water added per 0.1 g of the supplied 1-MCP/c/α-CD complex, and the resulting headspace measurements after 1 hour at about 20 C, are shown in Table 6.
A polynomial regression was used to calculate the dissociation at 100% RH in the headspace for the five samples of Table 6 (i.e., 4.3 milligrams water per 250 mL volume, see Example 8 for source and calculation of this information). The calculated amount of dissociated 1-MCP at 100% RH was 18 wt-%.

[2] = Example 5: 1-MCP headspace release versus wt-% 1-MCP/c/α-CD and time; settings: 5 cm x 10 cm, 250 mL bottle, water injected, average
Method: Using a razor blade, six 5 cm×10 cm rectangles were cut from the coated portions of 20 cm by 20 cm sheets prepared as in Example 3 and having 1.0 wt-%, 2.0 wt-% and 4.0 wt-% 1-MCP/c/α-CD, and the coated rectangles were cured according to the technique of Example 2. The rectangles were individually placed in 250 mL serum bottles. The bottles were sealed with TEFLON® faced silicone septa. Then […] of deionized water was injected into each bottle. […] Bottle headspace was analyzed at 4, 8, 24 and 48 hours after the injection of water, using the technique of Example 3. The results are provided in Table 4 and FIG. 4 and give the average headspace concentration and standard deviation for the different wt-% 1-MCP/c/α-CD coatings as a function of time.

[3] = Example 1: 1-MCP headspace release from UV-cured isobornyl acrylate coating with 1-MCP/c/α-CD on PET film (GC-FID); settings: 1 cm x 1 cm cured coated square, 250 mL bottle
Method: A cyclodextrin inclusion complex is formed from α-cyclodextrin and 1-methyl cyclopropene (1-MCP) using the technique described by Neoh, T. L. et al., J. Agric. Food Chem. 2007, 55, 11020-11026 “Kinetics of Molecular Encapsulation of 1-Methylcyclopropene into α-Cyclodextrin.” The inclusion complex is termed “1-MCP/c/α-CD.” A 500 mL bottle is charged with 97.0 g of isobornyl acrylate, 1.0 g of hexanediol diacrylate, 1.0 g of 1-MCP/c/α-CD, and 1.0 g of […] (IRGACURE® 184, obtained from Ciba Specialty Chemicals Corp. of Tarrytown, N.Y.). The bottle is firmly capped and the components are mixed by shaking the bottle briefly by hand.
About 2 mL of the mixture is removed with a metered dropper and dispensed on an 8.5 inch by 11 inch PET film and drawn down using a metering rod (Mayer rod) having a delivered coating thickness of 25 microns. Then the coated PET film is placed on a flat surface approximately 5 cm beneath a medium pressure mercury arc lamp operating at 200 watts per inch (79 watts per cm). After 30 seconds under the lamp, the film is removed. A silicone coated PET sheet (about 50 microns thick) is placed over the cured coating and allowed to sit on a laboratory bench overnight.
A die cutter is used to cut a 1 cm by 1 cm square of the coated portion of the sheet. […] Headspace concentrations of 1-MCP are measured after 1 hour following introduction of the coated square into bottle. The 1-MCP headspace concentration is quantified using gas chromatography by removing 1 mL of gas from the sample bottle using a gas sampling valve interfaced directly to a GC column having FID detector.
Then 50 μl of deionized water is injected into the jar. […] The sealed jar is allowed to sit on the lab bench for one hour after the injection of water, then a second headspace sample is analyzed. A final headspace sample is analyzed 24 hours after the injection of water. At 1 hour after injection of the water, 0.5 ppm of 1-MCP is measured in the headspace. After 24 hours, 0.5 ppm of 1-MCP is measured in the headspace.

With CC1=CC1 [1-MCP, 1-methylcyclopropene] the “Headspace concentration of 1-MCP” value ([1]; 0.25 g H2O) was 3,050 ppm (v/v), the “Headspace concentration of 1-MCP” value ([1]; 0.5 g H2O) was 4,750 ppm (v/v) and the “Headspace concentration of 1-MCP” value ([1]; 1.0 g H2O) was 6,850 ppm (v/v). For the same molecule, the “Headspace concentration of 1-MCP” value ([1]; 2.0 g H2O) was 9,850 ppm (v/v), the “Headspace concentration of 1-MCP” value ([1]; 3.0 g H2O) was 10,610 ppm (v/v) and the “1-MCP dissociated from complex” value ([1]; 1.0 grams of water per 0.10 grams 1-MCP/c/α-CD) was 66%. For the same molecule, the “calculated amount of dissociated 1-MCP at 100% RH” value ([1]; polynomial regression of the five samples of Table 6, 4.3 milligrams water per 250 mL volume) was 18 wt-%, the “resulting headspace concentration corresponding to supplier's specification” value ([1]; supplier's specification sheet 4.7 wt % 1-MCP, 0.1 g in 250 mL bottle) was 8,600 ppm and the “1-MCP in Headspace” value ([2]; 1 wt-% 1-MCP/c/α-CD coated, 4 hours) was 0.96 ppm-v/v. The “1-MCP in Headspace” value ([2]; 1 wt-% 1-MCP/c/α-CD coated, 8 hours) was 2.0 ppm-v/v, the “1-MCP in Headspace” value ([2]; 1 wt-% 1-MCP/c/α-CD coated, 24 hours) was 3.6 ppm-v/v and the “1-MCP in Headspace” value ([2]; 1 wt-% 1-MCP/c/α-CD coated, 48 hours) was 4.0 ppm-v/v. The “1-MCP in Headspace” value ([2]; 2 wt-% 1-MCP/c/α-CD coated, 4 hours) was 3.5 ppm-v/v, the “1-MCP in Headspace” value ([2]; 2 wt-% 1-MCP/c/α-CD coated, 8 hours) was 7.8 ppm-v/v and the “1-MCP in Headspace” value ([2]; 2 wt-% 1-MCP/c/α-CD coated, 24 hours) was 17.8 ppm-v/v. For the same molecule, the “1-MCP in Headspace” value ([2]; 2 wt-% 1-MCP/c/α-CD coated, 48 hours) was 21.2 ppm-v/v, the “1-MCP in Headspace” value ([2]; 4 wt-% 1-MCP/c/α-CD coated, 4 hours) was 7.5 ppm-v/v and the “1-MCP in Headspace” value ([2]; 4 wt-% 1-MCP/c/α-CD coated, 8 hours) was 13.5 ppm-v/v. For the same molecule, the “1-MCP in Headspace” value ([2]; 4 wt-% 1-MCP/c/α-CD coated, 24 hours) was 24.0 ppm-v/v, the “1-MCP in Headspace” value ([2]; 4 wt-% 1-MCP/c/α-CD coated, 48 hours) was 28.0 ppm-v/v and the “Headspace concentration of 1-MCP” value ([3]; 1 hour after injection of 50 μl water) was 0.5 ppm. The “Headspace concentration of 1-MCP” value ([3]; 24 hours after injection of 50 μl water) was 0.5 ppm and the “Headspace concentration of 1-MCP” value ([3]; no water added, 1 hour) was “No measurable concentration”.
